Experimental data as given in ChEMBL document CHEMBL1201862, “PubChem BioAssay data set” (2004).
Calls of active or inactive are those of the source. Cut-off read from the data, not from the text of the source, for most assays here: actives have a measured IC50 and inactives only a lower limit.

How the values were obtained:
[1] = system: Streptococcus sp. 'group A'; assay: Streptococcus pyogenes SK(-)GAS viability under kanamycin – luminescence, BacTiterGlo, confirmation, counter-screen for streptokinase expression inhibitor project, dose response (AID 1900); type: functional, organism-based
Caspase-3 = biological target: T1, Caspase-3 (Homo sapiens, UniProt P42574); type: functional;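 note: Dose-response selectivity test against caspase-3 for candidate inhibitors of sentrin-specific proteases (SENPs)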
T1 sequence (P42574 whole entry): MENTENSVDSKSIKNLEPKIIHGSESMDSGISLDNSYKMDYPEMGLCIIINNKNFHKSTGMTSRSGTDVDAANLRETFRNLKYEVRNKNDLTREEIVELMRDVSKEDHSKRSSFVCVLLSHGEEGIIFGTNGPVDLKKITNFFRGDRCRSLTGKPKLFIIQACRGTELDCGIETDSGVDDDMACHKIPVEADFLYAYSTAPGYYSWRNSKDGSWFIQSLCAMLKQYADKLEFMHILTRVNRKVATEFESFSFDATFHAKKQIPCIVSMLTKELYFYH

[2] = biological target: T2, Apoptotic protease-activating factor 1 (Homo sapiens, UniProt O14727); type: functional
T2 sequence (O14727 whole entry): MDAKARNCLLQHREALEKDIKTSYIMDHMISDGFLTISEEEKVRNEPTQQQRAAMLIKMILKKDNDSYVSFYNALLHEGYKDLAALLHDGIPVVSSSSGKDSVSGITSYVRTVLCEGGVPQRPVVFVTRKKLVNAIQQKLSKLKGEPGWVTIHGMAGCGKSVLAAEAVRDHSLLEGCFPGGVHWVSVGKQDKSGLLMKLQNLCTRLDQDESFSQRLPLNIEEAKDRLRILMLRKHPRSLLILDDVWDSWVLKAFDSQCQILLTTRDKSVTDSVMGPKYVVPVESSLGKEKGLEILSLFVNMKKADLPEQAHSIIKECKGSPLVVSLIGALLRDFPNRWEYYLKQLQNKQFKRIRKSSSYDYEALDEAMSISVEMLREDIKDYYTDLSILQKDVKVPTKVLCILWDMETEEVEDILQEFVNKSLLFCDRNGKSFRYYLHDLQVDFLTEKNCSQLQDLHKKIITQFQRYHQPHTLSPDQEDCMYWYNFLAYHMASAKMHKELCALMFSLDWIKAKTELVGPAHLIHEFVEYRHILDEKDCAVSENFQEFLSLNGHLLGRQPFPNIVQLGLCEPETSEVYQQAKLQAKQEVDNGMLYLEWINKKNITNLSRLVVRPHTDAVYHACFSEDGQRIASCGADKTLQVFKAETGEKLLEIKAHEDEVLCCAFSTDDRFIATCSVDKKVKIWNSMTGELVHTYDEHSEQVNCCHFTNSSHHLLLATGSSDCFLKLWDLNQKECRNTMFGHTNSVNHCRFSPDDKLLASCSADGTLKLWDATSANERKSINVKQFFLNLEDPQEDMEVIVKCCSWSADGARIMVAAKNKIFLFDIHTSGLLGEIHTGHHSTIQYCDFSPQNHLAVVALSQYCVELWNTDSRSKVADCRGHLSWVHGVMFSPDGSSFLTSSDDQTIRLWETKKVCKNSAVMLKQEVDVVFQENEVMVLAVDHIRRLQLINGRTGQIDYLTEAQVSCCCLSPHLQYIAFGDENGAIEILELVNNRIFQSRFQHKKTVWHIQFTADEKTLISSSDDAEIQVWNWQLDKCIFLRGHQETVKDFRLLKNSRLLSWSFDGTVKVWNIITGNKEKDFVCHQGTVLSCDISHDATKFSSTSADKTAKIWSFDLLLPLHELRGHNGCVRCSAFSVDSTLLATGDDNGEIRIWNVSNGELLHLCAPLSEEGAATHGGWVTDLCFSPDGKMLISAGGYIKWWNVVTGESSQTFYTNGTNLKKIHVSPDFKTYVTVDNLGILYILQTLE

Clc1ccc(C2=CSC3=Nc4cccc5cccc(c45)N23)cc1
active: EC50 [1] 4.17 µM | IC50 (Caspase-3) 7.93 µM | IC50 [2] 17.9 µM
